According to US20130344055A1, “ANTIMICROBIAL AGENTS” (priority 2010, published 2013):
Where two headings read alike, the source gives them in different places.

What was measured:
Staphylococcus bacteria = experiment: In vitro antibacterial activity of Lysostaphin and LysK fusion variants; format: cell-based; details: with EDTA 0.5 mM, 10^6 cells/ml, 30 minutes at RT
E. coli XL1 blue = format: cell-based; details: for Average log reduction, E. coli. X1-1: Table 9, with EDTA 0.5 mM
Description: (§1) . After incubation cell suspensions and as a control untreated bacterial cells without any added modified OBPgpLYS variant were diluted three times (respectively 10^5-10^4-10^3 cells/ml) in 1× concentrated PBS buffer and 100 μl of each dilution was plated out on LB-medium. […] All samples were replicated in threefold. Averages +/− standard deviations are represented.
(§2) The production of OBPgpLys with two peptide stretches is described above in Example 1. Moreover, the purification of the fusion proteins and the antimicrobial activity assay was performed as described already in Example 1.

P. putida G1 = experiment: In vitro antibacterial activity (log reduction) of modified OBPgpLys fusion variants; format: cell-based; details: 10^6 cells/ml, 30 minutes at RT
Description: (§3) Exponential growing Gram-negative bacterial cells (OD600 nm=0.6) were 100-fold diluted to a final density of about 10^6 cells/ml in 5 mM HEPES pH 7.4 and incubated for 30 minutes at room temperature without shaking with the different modified OBPgpLYS variants (in Elution Buffer in an end concentration of 1500 nM). After incubation cell suspensions and as a control untreated bacterial cells without any added modified OBPgpLYS variant were diluted three times (respectively 10^5-10^4-10^3 cells/ml) in 1× concentrated PBS buffer and 100 μl of each dilution was plated out on LB-medium. […] All samples were replicated in threefold. Averages +/− standard deviations are represented.
as §2

P. aeruginosa PAO1p = experiment: as above; format: cell-based; details: 10^6 cells/ml, 30 minutes at RT
Description: as §3, §2

S. typhimurium LT2 = experiment: as above; format: cell-based, Salmonella typhimurium; details: 10^6 cells/ml, 30 minutes at RT; for Average log reduction, Salmonella typhimurium LT2: Table 9, with EDTA 0.5 mM; for Average log reduction, S. typhimurium LT2: 1500 nM protein
Description: as §1, with “After” for “. After”
as §2

[1] = with EDTA 0.5 mM (B), 1500 nM protein
[2] = 10^6 cells/ml, 30 minutes at RT
[3] = with EDTA 0.5 mM (B), 1500 nM protein, 10^6 cells/ml, 30 minutes at RT
[4] = without EDTA (A), 1500 nM protein, 10^6 cells/ml, 30 minutes at RT
[5] = without EDTA (A), 1500 nM protein

Molecule | Average log reduction, Staphylococcus (Staphylococcus bacteria; Lysostaphin variants) | Average log reduction, E. coli XL1 blue (E. coli XL1 blue) | Average log reduction, P. putida G1 (P. putida G1; [1]) | Average log reduction, P. aeruginosa PAO1p (P. aeruginosa PAO1p; [1]) | Average log reduction, Salmonella typhimurium LT2 (S. typhimurium LT2) | Average log reduction, S. typhimurium LT2 (S. typhimurium LT2; with EDTA 0.5 mM (B)) | Average log reduction, S. typhimurium LT2 (S. typhimurium LT2; without EDTA (A)) | Average log reduction, E. coli. X1-1 (E. coli XL1 blue; [2]) | Average log reduction, E. coli XL1 blue (E. coli XL1 blue; [3]) | Average log reduction, E. coli XL1 blue (E. coli XL1 blue; [4]) | Average log reduction, P. putida G1 (P. putida G1; Table 9, with EDTA 0.5 mM) | Average log reduction, P. putida G1 (P. putida G1; [5]) | Average log reduction, P. aeruginosa PAO1p (P. aeruginosa PAO1p; Table 9, with EDTA 0.5 mM) | Average log reduction, P. aeruginosa PAO1p (P. aeruginosa PAO1p; [5]) | Average log reduction, Staphylococcus (Staphylococcus bacteria; LysK variants)
Lysostaphin-Sarcotoxin IA: Lysostaphin fusion variant with one peptide stretch, Sarcotoxin IA, C-terminal | ++ (++: 2-3 log) |  |  |  |  |  |  |  |  |  |  |  |  |  | 
O=C(O)CN(CCN(CC(=O)O)CC(=O)O)CC(=O)O [EDTA, reference compound] |  | 0.85 log | 0.65 log | 1.82 log |  |  |  |  |  |  |  |  |  |  | 
Walmagh2-PK-OBPgplys: amphiphatic peptide Walmagh 2, then PK, N-terminally fused to endolysin OBPgpLys |  |  | 2.60 log | 3.91 log | + (+: 1 log) | 0.25 log | 0.17 log | ++ (++: 2-3 log) | 1.86 log | 1.68 log | ++ (++: 2-3 log) | 0.00 log | +++ (+++: 4 or more logs) | 0.57 log | 
Sarcotoxin IA-Lysostaphin: Lysostaphin fusion variant with one peptide stretch, Sarcotoxin IA, N-terminal | ++ (++: 2-3 log) |  |  |  |  |  |  |  |  |  |  |  |  |  | 
PK-α4-OBPgpLys: polycationic peptide PK, then α4-helix of T4-lysozyme, N-terminally fused to endolysin OBPgpLys |  |  | 2.97 log | 5.07 log | + (+: 1 log) | 0.29 log | 0.23 log | ++ (++: 2-3 log) | 0.86 log | 0.54 log | ++ (++: 2-3 log) | 0.01 log | +++ (+++: 4 or more logs) | 1.10 log | 
PK-Pentapeptide-OBPgplys: polycationic peptide PK, then hydrophobic pentapeptide FFVAP, N-terminally fused to endolysin OBPgpLys |  |  | 3.24 log | 4.00 log | + (+: 1 log) | 0.42 log | 0.22 log | ++ (++: 2-3 log) | 2.12 log | 1.69 log | +++ (+++: 4 or more logs) | 0.80 log | +++ (+++: 4 or more logs) | 0.95 log | 
Lycotoxin1-PK-OBPgpLYS: antimicrobial peptide Lycotoxin 1, then PK, N-terminally fused to endolysin OBPgpLys |  |  | 2.26 log | 3.73 log | + (+: 1 log) | 0.29 log | 0.17 log | ++ (++: 2-3 log) | 0.90 log | 0.41 log | ++ (++: 2-3 log) | 0.56 log | +++ (+++: 4 or more logs) | 0.08 log | 
OBPgpLYS: endolysin of Pseudomonas putida phage OBP, without peptide stretch |  |  |  |  | + (+: 1 log) |  |  | + (+: 1 log) |  |  | + (+: 1 log) |  | + (+: 1 log) |  | 
α4-PK-OBPgpLys: α4-helix of T4-lysozyme, then polycationic peptide PK, N-terminally fused to endolysin OBPgpLys |  |  | 2.98 log | 5.23 log | + (+: 1 log) | 0.35 log | 0.22 log | + (+: 1 log) | 0.58 log | 0.55 log | ++ (++: 2-3 log) | 0.02 log | +++ (+++: 4 or more logs) | 0.59 log | 
Lysostaphin: bacteriocin degrading Staphylococcus cell walls | + (+: 1 log) |  |  |  |  |  |  |  |  |  |  |  |  |  | 
Walmagh1-PK-OBPgpLYS: hydrophobic peptide Walmagh 1, then PK, N-terminally fused to endolysin OBPgpLys |  |  | 3.22 log | 3.66 log |  | 0.17 log | 0.12 log |  | 1.70 log | 1.46 log |  | 0.29 log |  | 0.20 log | 
Parasin1-PK-OBPgpLys: antimicrobial peptide Parasin 1, then PK, N-terminally fused to endolysin OBPgpLys |  |  | 2.32 log | 4.92 log | + (+: 1 log) | 0.28 log | 0.27 log | ++ (++: 2-3 log) | 1.00 log | 0.70 log | ++ (++: 2-3 log) | 0.16 log | +++ (+++: 4 or more logs) | 0.75 log | 
LysK: endolysin LysK (protein, Staphylococcus aureus Phage K) MAKTQAEINKRLDAYAKGTVDSPYRVKKATSYDPSFGVMEAGAIDADGYYHAQCQDLITDYVLWLTDNKVRTWGNAKDQIKQSYGTGFKIHENKPSTVPKKGWIAVFTSGSYEQWGHIGIVYDGGNTSTFTILEQNWNGYANKKPTKRVDNYYGLTHFIEIPVKAGTTVKKETAKKSASKTPAPKKKATLKVSKNHINYTMDKRGKKPEGMVIHNDAGRSSGQQYENSLANAGYARYANGIAHYYGSEGYVWEAIDAKNQIAWHTGDGTGANSGNFRFAGIEVCQSMSASDAQFLKNEQAVFQFTAEKFKEWGLTPNRKTVRLHMEFVPTACPHRSMVLHTGFNPVTQGRPSQAIMNKLKDYFIKQIKNYMDKGTSSSTVVKDGKTSSASTPATRPVTGSWKKNQYGTWYKPENATFVNGNQPIVTRIGSPFLNAPVGGNLPAGATIVYDEVCIQAGHIWIGYNAYNGNRVYCPVRTCQGVPPNQIPGVAWGVFK |  |  |  |  |  |  |  |  |  |  |  |  |  |  | + (+: 1 log)
